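A five-concentration, 48-hour dose response in 96-well plates underlies each endpoint, interpolated linearly between surrounding concentrations. At the GI50, growth is halved.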 Activity calls are given as the source filed them. No stated cut-off is given here; in the data, active = GI50 up to about 1.1 µM and inactive = higher.
How the values were obtained:
Test in all cases: growth of human tumour cells (NCI), 48 h
UACC-62 = test system: UACC-62
ACHN = test system: ACHN
Hs-578T = test system: Hs-578T
KM12 = test system: KM12
UACC-257 = test system: UACC-257
LOX IMVI = test system: LOX IMVI
SNB-75 = test system: SNB-75
OVCAR-4 = test system: OVCAR-4
CAKI-1 = test system: CAKI-1
HCT-15 = test system: HCT-15
BT-549 = test system: BT-549
DU-145 = test system: DU-145
RXF 393 = test system: RXF 393
NCI-H522 = test system: NCI-H522
T47D = test system: T47D
SR = test system: SR
NCI/ADR-RES = test system: NCI/ADR-RES
UO-31 = test system: UO-31
MDA-MB-231 = test system: MDA-MB-231
HL-60 = test system: HL-60

Compound | GI50 (UACC-62) | GI50 (ACHN) | GI50 (Hs-578T) | GI50 (KM12) | GI50 (UACC-257) | GI50 (LOX IMVI) | GI50 (SNB-75) | GI50 (OVCAR-4) | GI50 (CAKI-1) | GI50 (HCT-15) | GI50 (BT-549) | GI50 (DU-145) | GI50 (RXF 393) | GI50 (NCI-H522) | GI50 (T47D) | GI50 (SR) | GI50 (NCI/ADR-RES) | GI50 (UO-31) | GI50 (MDA-MB-231) | GI50 (HL-60)
O=C(O)CCC(=O)c1ccc[nH]1 | > 100 µM (inactive) | > 100 µM (inactive) | > 100 µM (inactive) | > 100 µM (inactive) | 94 µM (inactive) | > 100 µM (inactive) | > 100 µM (inactive) | > 100 µM (inactive) | > 100 µM (inactive) | > 100 µM | > 100 µM (inactive) | > 100 µM (inactive) | > 100 µM (inactive) | > 100 µM (inactive) | > 100 µM (inactive) | > 100 µM (inactive) | > 100 µM (inactive) | > 100 µM (inactive) | > 100 µM (inactive) | 
O=C(O)CCCCn1cnc2c(S)ncnc21 | > 100 µM (inactive) | > 100 µM (inactive) | > 100 µM (inactive) | > 100 µM (inactive) | > 100 µM (inactive) | > 100 µM (inactive) | > 100 µM (inactive) | > 100 µM (inactive) | > 100 µM (inactive) | > 100 µM | > 100 µM (inactive) | > 100 µM (inactive) | > 100 µM (inactive) | > 100 µM (inactive) | > 100 µM (inactive) | > 100 µM (inactive) | > 100 µM (inactive) | > 100 µM (inactive) | > 100 µM (inactive) | 
COc1ccc(C2Oc3ccc(Cl)cc3C=C2[N+](=O)[O-])cc1 (stereo not drawn) | > 100 µM (inactive) | > 100 µM (inactive) | > 100 µM (inactive) | > 100 µM (inactive) | > 100 µM (inactive) | > 100 µM (inactive) |  | > 100 µM (inactive) | > 100 µM (inactive) | > 100 µM | > 100 µM (inactive) | > 100 µM (inactive) | > 100 µM (inactive) | > 100 µM (inactive) | > 100 µM (inactive) | > 100 µM (inactive) | > 100 µM (inactive) | > 100 µM (inactive) | > 100 µM (inactive) | > 100 µM (inactive)
C[C@]12CCC3=NCCN3C1=CC[C@@H]1[C@@H]2CC[C@@]2(C)[C@H]1CC[C@]2(C)O | 29.3 µM (inactive) | > 100 µM (inactive) | 30.5 µM (inactive) | 82.6 µM (inactive) | 24.4 µM (inactive) | 32.2 µM (inactive) | 40.7 µM (inactive) | > 100 µM (inactive) | > 100 µM (inactive) | 53.2 µM | 44 µM (inactive) | > 100 µM (inactive) | 23 µM (inactive) | 58.1 µM (inactive) | 87.1 µM (inactive) | 38.8 µM (inactive) | > 100 µM (inactive) | 68.1 µM (inactive) | > 100 µM (inactive) | 
Cc1cc2nc3c(C#N)c4c(c(-c5ccc(Cl)cc5)n3c2cc1C)CCC4 | 18.4 µM (inactive) | 24.2 µM (inactive) | 25.1 µM (inactive) | 22 µM (inactive) | 21.4 µM (inactive) | 30.2 µM (inactive) |  | 38.5 µM (inactive) | 19.4 µM (inactive) | 27.9 µM | 20.4 µM (inactive) | 20.9 µM (inactive) | 45 µM (inactive) | 18.7 µM (inactive) | 22.3 µM (inactive) | 23.8 µM (inactive) | 41.1 µM (inactive) | 19.9 µM (inactive) | 22.2 µM (inactive) | 21.4 µM (inactive)
CCCC(CCC(N)=O)(CCC(N)=O)[N+](=O)[O-] | > 100 µM (inactive) | > 100 µM (inactive) | > 100 µM (inactive) | > 100 µM (inactive) | > 100 µM (inactive) |  | > 100 µM (inactive) |  | > 100 µM (inactive) | > 100 µM | > 100 µM (inactive) | > 100 µM (inactive) | 69.3 µM (inactive) | 26.5 µM (inactive) | > 100 µM (inactive) | > 100 µM (inactive) | > 100 µM (inactive) | > 100 µM (inactive) | > 100 µM (inactive) | > 100 µM (inactive)
COC1=C(OC)C(=O)C(Cc2c(Cl)nc3n2CCS3)=C(C)C1=O | 12.1 µM (inactive) | 14.8 µM (inactive) | 19.8 µM (inactive) | 14 µM (inactive) | 9.84 µM (inactive) | 6.35 µM (inactive) |  | 7.73 µM (inactive) | 16.6 µM (inactive) | 17.1 µM | 14.4 µM (inactive) | 17.2 µM (inactive) | 17.4 µM (inactive) | 11.6 µM (inactive) | 4.13 µM (inactive) | 7.59 µM (inactive) | 12.8 µM (inactive) | 13.7 µM (inactive) | 4.04 µM (inactive) | 2.3 µM (inactive)
CC[C@@H]1CC[C@@H]2[C@H](CC[C@]3(C)[C@@H](OC(C)=O)CC[C@@H]23)[C@H]1C(=O)OC | 20.1 µM (inactive) | 40 µM (inactive) | 46.1 µM (inactive) | 22.5 µM (inactive) | 25.3 µM (inactive) | 20 µM (inactive) | 22.3 µM (inactive) | 19.9 µM (inactive) | 35.3 µM (inactive) | 22 µM | 34.4 µM (inactive) | 27.4 µM (inactive) | 24.6 µM (inactive) | 27.2 µM (inactive) | 21.8 µM (inactive) |  | 26.9 µM (inactive) | 33.7 µM (inactive) | 20.6 µM (inactive) | 13.3 µM (inactive)
CCCCOCCOC1=CC(=O)c2c(O)ccc(O)c2C1=O | 1.51 µM (inactive) | 1.72 µM (inactive) | 2.22 µM (inactive) | 1.75 µM (inactive) | 1.03 µM (active) | 1.73 µM (inactive) | 1.57 µM (inactive) | 1.92 µM (inactive) | 1.78 µM (inactive) |  | 1.63 µM (inactive) | 1.78 µM (inactive) | 1.66 µM (inactive) | 1.58 µM (inactive) | 2.06 µM (inactive) | 1.24 µM (inactive) | 2.12 µM (inactive) | 1.64 µM (inactive) | 1.95 µM (inactive) | 0.506 µM (active)
COc1ccc2c(c1)C(=O)[C@@](Nc1ccc(C=O)cc1)(OC)[C@@](OC)(c1ccc([N+](=O)[O-])cc1)O2 | > 10 µM (inactive) | > 10 µM (inactive) | > 10 µM (inactive) | > 10 µM (inactive) | > 10 µM (inactive) | > 10 µM (inactive) | 3.91 µM (inactive) | > 10 µM (inactive) | > 10 µM (inactive) | > 10 µM | > 10 µM (inactive) | > 10 µM (inactive) | > 10 µM (inactive) |  | 5.96 µM (inactive) | > 10 µM (inactive) | > 10 µM (inactive) | > 10 µM (inactive) | > 10 µM (inactive) | > 10 µM (inactive)
Cc1cn(C2CC(N=[N+]=[N-])C(COP(=O)(O)OCC3OC(n4cc(F)c(=O)[nH]c4=O)CC3O)O2)c(=O)[nH]c1=O (stereo not drawn) | 8.34 µM (inactive) | 0.63 µM (active) | > 100 µM (inactive) | > 26.4 µM (inactive) | 96.6 µM (inactive) | 0.653 µM (active) | 9.06 µM (inactive) |  | 1.32 µM (inactive) | > 100 µM | > 100 µM (inactive) | 4.1 µM (inactive) | > 100 µM (inactive) | > 100 µM (inactive) | > 100 µM (inactive) | 1.92 µM (inactive) | 0.57 µM (active) | 0.465 µM (active) | > 100 µM (inactive) | 9.1 µM (inactive)
CSc1nc(=O)cnn1C | > 100 µM (inactive) | > 100 µM (inactive) | > 100 µM (inactive) | > 100 µM (inactive) | > 100 µM (inactive) |  | > 100 µM (inactive) | > 100 µM (inactive) | > 100 µM (inactive) | > 100 µM | > 100 µM (inactive) | > 100 µM (inactive) | > 100 µM (inactive) | > 100 µM (inactive) | > 100 µM (inactive) | > 100 µM (inactive) | > 100 µM (inactive) | > 100 µM (inactive) | > 100 µM (inactive) | 
CNC(=O)N1CCN(C(=O)NC)CCN(C(=O)NC)CC1 | > 100 µM (inactive) | > 100 µM (inactive) | > 100 µM (inactive) |  | > 100 µM (inactive) | > 100 µM (inactive) | > 100 µM (inactive) |  |  | > 100 µM | > 100 µM (inactive) | > 100 µM (inactive) | > 100 µM (inactive) | > 100 µM (inactive) | > 100 µM (inactive) | > 100 µM (inactive) | > 100 µM (inactive) | > 100 µM (inactive) | > 100 µM (inactive) | > 100 µM (inactive)
C/C(=N\NC(=S)N/N=C(\C)c1ccccn1)c1ccccn1 | 1.71 µM (inactive) | 1.27 µM (inactive) | 31.8 µM (inactive) | 1.28 µM (inactive) | 4.09 µM (inactive) | 0.859 µM (active) | 5.93 µM (inactive) | 1.04 µM (active) | 1.41 µM (inactive) | 0.627 µM | 5.22 µM (inactive) | 3.62 µM (inactive) |  | 6.49 µM (inactive) | 6.31 µM (inactive) | 2.18 µM (inactive) | 0.381 µM (active) | 0.809 µM (active) | 21.5 µM (inactive) | > 100 µM (inactive)
C1=C(CC2=C[P+](c3ccccc3)(c3ccccc3)C=C(c3ccccc3)O2)OC(c2ccccc2)=C[P+]1(c1ccccc1)c1ccccc1 |  | 0.644 µM (active) | 0.241 µM (active) | 0.325 µM (active) | 0.352 µM (active) | 0.431 µM (active) | 0.291 µM (active) |  | 2.21 µM (inactive) | 1.63 µM | 0.097 µM (active) | 0.482 µM (active) |  |  | 0.17 µM (active) | 0.26 µM (active) | 14.3 µM (inactive) | 1.56 µM (inactive) | 0.313 µM (active) | 0.188 µM (active)
